Test results published in PubChem BioAssay AID1963976 (Molecular Pharmacology Branch, DTP, NCI, 2024).
pIC50: −log10 of the molar value. Values joined by “and” are separate entries in the source; they are usually repeats but may differ in a detail not shown here. Equal values may be shown once.

Tested on: 435261-313-R-J1-PDC tumor spheroid viability
Assay: Anticancer human tumor 435261-313-R-J1-PDC patient-derived colon adenocarcinoma cell line growth inhibition [PI3K]
Settings: spheroids with HUVEC and MSC; for viability, T/C: stronger effect = lower value
Procedure, shortened: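 Tumor cells grown as multi-cell spheroids with HUVEC endothelial cells and MSC fibroblast-like stroma were treated with targeted agents combined with inavolisib, alpelisib, duvelisib or copanlisib. Doses fell in half-log steps from near clinical Cmax, else from 10 microM. Viability was measured.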

[1] = curve of first compound, second compound 0.00316 µM
[2] = curve of first compound, second compound 0.01 µM
[3] = curve of first compound, second compound 0.0316 µM
[4] = curve of first compound, second compound 0.1 µM
[5] = curve of first compound, second compound 0.316 µM
[6] = curve of first compound, second compound 1 µM
[7] = second compound 0.00316 µM, first compound 0.0316 µM
[8] = second compound 0.00316 µM, first compound 0.1 µM
[9] = second compound 0.00316 µM, first compound 0.316 µM
[10] = second compound 0.00316 µM, first compound 1 µM
[11] = second compound 0.00316 µM, first compound 3.16 µM
[12] = second compound 0.00316 µM, first compound 10 µM
[13] = second compound 0.01 µM, first compound 0.0316 µM
[14] = second compound 0.01 µM, first compound 0.1 µM
[15] = second compound 0.01 µM, first compound 0.316 µM
[16] = second compound 0.01 µM, first compound 1 µM
[17] = second compound 0.01 µM, first compound 3.16 µM
[18] = second compound 0.01 µM, first compound 10 µM
[19] = second compound 0.0316 µM, first compound 0.0316 µM
[20] = second compound 0.0316 µM, first compound 0.1 µM
[21] = second compound 0.0316 µM, first compound 0.316 µM
[22] = second compound 0.0316 µM, first compound 1 µM
[23] = second compound 0.0316 µM, first compound 3.16 µM
[24] = second compound 0.0316 µM, first compound 10 µM
[25] = second compound 0.1 µM, first compound 0.0316 µM
[26] = second compound 0.1 µM, first compound 0.1 µM
[27] = second compound 0.1 µM, first compound 0.316 µM
[28] = second compound 0.1 µM, first compound 1 µM
[29] = second compound 0.1 µM, first compound 3.16 µM
[30] = second compound 0.1 µM, first compound 10 µM
[31] = second compound 0.316 µM, first compound 0.0316 µM
[32] = second compound 0.316 µM, first compound 0.1 µM
[33] = second compound 0.316 µM, first compound 0.316 µM
[34] = second compound 0.316 µM, first compound 1 µM
[35] = second compound 0.316 µM, first compound 3.16 µM
[36] = second compound 0.316 µM, first compound 10 µM
[37] = second compound 1 µM, first compound 0.0316 µM
[38] = second compound 1 µM, first compound 0.1 µM
[39] = second compound 1 µM, first compound 0.316 µM
[40] = second compound 1 µM, first compound 1 µM
[41] = second compound 1 µM, first compound 3.16 µM
[42] = second compound 1 µM, first compound 10 µM
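Also: spheroids exposed to compounds for 7 days.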

Compound: C=CC(=O)N1CCN(c2nc(=O)n(-c3c(C)ccnc3C(C)C)c3nc(-c4c(O)cccc4F)c(F)cc23)C(C)C1 (centres undefined) + CC(Nc1ccc2c(c1)OCCn1cc(N3C(=O)OCC3C(F)F)nc1-2)C(N)=O
- pIC50 [1]: < 5.00
- pIC50 [2]: < 5.00
- pIC50 [3]: < 5.00
- pIC50 [4]: > 7.50
- pIC50 [5]: > 7.50
- pIC50 [6]: > 7.50
- viability, T/C [7]: 83.2%
- viability, T/C [8]: 81.4%
- viability, T/C [9]: 111%
- viability, T/C [10]: 126%
- viability, T/C [11]: 117%
- viability, T/C [12]: 120%
- viability, T/C [13]: 99.2%
- viability, T/C [14]: 88.4%
- viability, T/C [15]: 95.1%
- viability, T/C [16]: 89.5%
- viability, T/C [17]: 91.7%
- viability, T/C [18]: 111%
- viability, T/C [19]: 70.7%
- viability, T/C [20]: 78.6%
- viability, T/C [21]: 71.5%
- viability, T/C [22]: 70.2%
- viability, T/C [23]: 87.4%
- viability, T/C [24]: 101%
- viability, T/C [25]: 49.7%
- viability, T/C [26]: 42.6%
- viability, T/C [27]: 45.5%
- viability, T/C [28]: 37.9%
- viability, T/C [29]: 60.9%
- viability, T/C [30]: 54.5%
- viability, T/C [31]: 20.8%
- viability, T/C [32]: 22%
- viability, T/C [33]: 27%
- viability, T/C [34]: 22.8%
- viability, T/C [35]: 25.5%
- viability, T/C [36]: 21.1%
- viability, T/C [37]: 20.2%
- viability, T/C [38]: 16.5%
- viability, T/C [39]: 18.1%
- viability, T/C [40]: 20.4%
- viability, T/C [41]: 14.9%
- viability, T/C [42]: 17.9%

Compound: Cn1cnc2c(F)c(Nc3ccc(Br)cc3Cl)c(C(=O)NOCCO)cc21
- viability, T/C (compound 0.00949 µM): 33.8% and 34.9% and 45.8%
- viability, T/C (compound 0.03 µM): 32.3% and 27.6% and 36%
- viability, T/C (compound 0.0949 µM): 12.5% and 23.4% and 29.8%
- viability, T/C (compound 0.3 µM): 30.7% and 22.9% and 24.5%
- viability, T/C (compound 0.949 µM): 16.1% and 18.4% and 20.9%
- viability, T/C (compound 3 µM): 9.65% and 10.9% and 16.8%
- pIC50 (curve of compound): > 8.02

Compound: C#Cc1c(F)ccc2cc(O)cc(-c3ncc4c(N5CC6CCC(C5)N6)nc(OCC56CCCN5CC(F)C6)nc4c3F)c12 (centres undefined) + CC(Nc1ccc2c(c1)OCCn1cc(N3C(=O)OCC3C(F)F)nc1-2)C(N)=O
- pIC50 [1]: 5.43
- pIC50 [2]: 5.69
- pIC50 [3]: 5.72
- pIC50 [4]: 7.07
- pIC50 [5]: > 7.50
- pIC50 [6]: > 7.50
- viability, T/C [7]: 73.9%
- viability, T/C [8]: 91.2%
- viability, T/C [9]: 85.6%
- viability, T/C [10]: 98.2%
- viability, T/C [11]: 54.1%
- viability, T/C [12]: 25.7%
- viability, T/C [13]: 74.4%
- viability, T/C [14]: 93.9%
- viability, T/C [15]: 90.7%
- viability, T/C [16]: 65.8%
- viability, T/C [17]: 41.1%
- viability, T/C [18]: 28.8%
- viability, T/C [19]: 54.5%
- viability, T/C [20]: 65.7%
- viability, T/C [21]: 66.2%
- viability, T/C [22]: 76.5%
- viability, T/C [23]: 38.1%
- viability, T/C [24]: 13.8%
- viability, T/C [25]: 43.9%
- viability, T/C [26]: 57%
- viability, T/C [27]: 47.4%
- viability, T/C [28]: 33.2%
- viability, T/C [29]: 22.6%
- viability, T/C [30]: 12.3%
- viability, T/C [31]: 21.7%
- viability, T/C [32]: 21.6%
- viability, T/C [33]: 26.5%
- viability, T/C [34]: 17.5%
- viability, T/C [35]: 15.1%
- viability, T/C [36]: 7.18%
- viability, T/C [37]: 18.9%
- viability, T/C [38]: 14.5%
- viability, T/C [39]: 13.1%
- viability, T/C [40]: 12%
- viability, T/C [41]: 7.99%
- viability, T/C [42]: 3.34%

Compound: CC(C)NCC(C(=O)N1CCN(c2ncnc3c2C(C)CC3O)CC1)c1ccc(Cl)cc1 (centres undefined)
- viability, T/C (compound 0.0316 µM): 76.4% and 94.8% and 95.1%
- viability, T/C (compound 0.1 µM): 90.5% and 77% and 73.2%
- viability, T/C (compound 0.316 µM): 95.1% and 85.8% and 97.9%
- viability, T/C (compound 1 µM): 57.7% and 48.9% and 79%
- viability, T/C (compound 3.16 µM): 58.6% and 52.4% and 76.3%
- viability, T/C (compound 10 µM): 20.2% and 36.6% and 29%
- pIC50 (curve of compound): 5.45 and 6.02 and 5.23

Compound: CC1(C)CCC(CN2CCN(c3ccc(C(=O)NS(=O)(=O)c4ccc(NCC5CCOCC5)c([N+](=O)[O-])c4)c(Oc4cnc5[nH]ccc5c4)c3)CC2)=C(c2ccc(Cl)cc2)C1 + CC(Nc1ncnc2nc[nH]c12)c1cc2cccc(Cl)c2c(=O)n1-c1ccccc1
- pIC50 [3]: < 5.00
- pIC50 [4]: < 5.00
- pIC50 [5]: < 5.00
- pIC50 [6]: < 5.00
- pIC50 (curve of first compound, second compound 3.16 µM): < 5.00
- pIC50 (curve of first compound, second compound 10 µM): > 7.50
- viability, T/C [19]: 79.5%
- viability, T/C [20]: 92%
- viability, T/C [21]: 71.5%
- viability, T/C [22]: 80%
- viability, T/C [23]: 86.9%
- viability, T/C [24]: 95%
- viability, T/C [25]: 66.1%
- viability, T/C [26]: 78.2%
- viability, T/C [27]: 81.3%
- viability, T/C [28]: 71.6%
- viability, T/C [29]: 94.5%
- viability, T/C [30]: 84.9%
- viability, T/C [31]: 77.5%
- viability, T/C [32]: 100%
- viability, T/C [33]: 87.2%
- viability, T/C [34]: 77.3%
- viability, T/C [35]: 77.4%
- viability, T/C [36]: 52.2%
- viability, T/C [37]: 87.6%
- viability, T/C [38]: 66.1%
- viability, T/C [39]: 66.4%
- viability, T/C [40]: 64%
- viability, T/C [41]: 73.2%
- viability, T/C [42]: 46.6%
- viability, T/C (second compound 3.16 µM, first compound 0.0316 µM): 65.3%
- viability, T/C (second compound 3.16 µM, first compound 0.1 µM): 72.6%
- viability, T/C (second compound 3.16 µM, first compound 0.316 µM): 87.2%
- viability, T/C (second compound 3.16 µM, first compound 1 µM): 72.3%
- viability, T/C (second compound 3.16 µM, first compound 3.16 µM): 77%
- viability, T/C (second compound 3.16 µM, first compound 10 µM): 76.7%
- viability, T/C (second compound 10 µM, first compound 0.0316 µM): 41.6%
- viability, T/C (second compound 10 µM, first compound 0.1 µM): 60.8%
- viability, T/C (second compound 10 µM, first compound 0.316 µM): 32.7%
- viability, T/C (second compound 10 µM, first compound 1 µM): 62.9%
- viability, T/C (second compound 10 µM, first compound 3.16 µM): 50.3%
- viability, T/C (second compound 10 µM, first compound 10 µM): 43.9%

Compound: CNC(=O)c1ccc(N2C(=S)N(c3ccc(C#N)c(C(F)(F)F)c3)C(=O)C2(C)C)cc1F
- viability, T/C (compound 3.16 µM): 106% [middle of 4 runs]
- pIC50 (curve of compound): < 5.00

Compound: CC(C)n1nc(-c2ccc3oc(N)nc3c2)c2c(N)ncnc21
- viability, T/C (compound 0.000316 µM): 75.7% and 66.3%
- viability, T/C (compound 0.001 µM): 119% and 65.3%
- viability, T/C (compound 0.00316 µM): 86.6% and 58.6%
- viability, T/C (compound 0.01 µM): 67.3% and 48.3%
- viability, T/C (compound 0.0316 µM): 60.8% and 46.7%
- viability, T/C (compound 0.1 µM): 18.7% and 12.7%
- pIC50 (curve of compound): 7.42 and 7.84
